For data set [1] the following is noted: after 60 minutes.
Data set [2] is described as follows: Pion's μSOL assay for kinetic solubility. In kind it is physicochemical.
Data set [3] can be described thus: kinetic solubility analysis in PBS solution. In kind it is physicochemical.
For a further data set, the system named is VEGF. Particulars: human monocyte leukemia cells (THP1); previously reported, ref [9], [17]; cited from earlier work.
The next data set in a line: rat microsome stability. Particulars: microsomes.

The values that follow come from publication PMC6102074 (European journal of medicinal chemistry, 2018).

Converted amounts (≈) assume the structure as drawn. A value given as a limit tells only on which side of the number the result lay.

Take “3-(Cyclohexanecarboxamido)-N-(3-(trifluoromethyl)phenyl)-benzamide [Compound 3]”: the “parent remaining in mouse liver microsomes” value in data set [1] amounted to 70%. Take `O=C(Nc1ccccc1C(=O)Nc1ccccc1C(=O)NCc1ccco1)c1ccco1` [Compound 1]: the kinetic solubility in the data set “physchem” worked out at 1.6 µg/mL (≈ 3.73 µM).

In data set [2], `CCOc1ccccc1C(=O)Nc1ncccc1C(=O)Nc1cccc(S(=O)(=O)C(F)(F)F)c1` [Compound 49, 2-(2-Ethoxybenzamido)-N-(3-((trifluoromethyl)sulfonyl)phenyl)nicotinamide] yielded a solubility of under 1 µM.

The compound `CCOc1ccccc1C(=O)Nc1cnccc1C(=O)Nc1cccc(S(=O)(=O)C(F)(F)F)c1` [Compound 50, 3-(2-Ethoxybenzamido)-N-(3-((trifluoromethyl)sulfonyl)phenyl)isonicotinamide] gave a solubility in data set [2] of under 1 µM. `CCOc1ccccc1C(=O)Nc1ccccc1C(=O)Nc1cccc(S(=O)(=O)C(F)(F)F)c1` [Compound 63, 2-Ethoxy-N-(2-((3-((trifluoromethyl)sulfonyl)phenyl)carbamoyl)phenyl)benzamide] gave a solubility in data set [3] of under 1.1 µM. In the case of `CC(C)Oc1ccccc1C(=O)Nc1ccccc1C(=O)Nc1cccc(S(=O)(=O)C(F)(F)F)c1` [Compound 65, 2-Isopropoxy-N-(2-(3-(trifluoromethylsulfonyl)phenylcarbamoyl)phenyl)benzamide], in the data set on VEGF, the “activation of VEGF transcription” value was “activate the transcription”. Moreover, the half-life in “rat microsome stability” amounted to 28.2 min.

As a reminder, the kinetic solubility is solubility judged after dilution from a stock solution rather than from solid. As usually defined, the solubility is the concentration that dissolves in the medium under given conditions. The term half-life denotes the time in which the quantity being followed falls by half.
